In patent publication US20210260010A1, “COMPOSITIONS AND METHODS FOR THE REDUCTION OR TREATMENT OF INFLAMMATION” (AXCELLA HEALTH INC., priority 2018, published 2021):

Key:
TNFα = test: LPS-induced TNFα secretion in primary human monocyte-derived macrophages (ELISA); format: cell-based; design: TNFa Measurements Mean: unit not given here; details: for TNFa Measurements Mean: LPS 0.15 ng/mL; for TNFa Measurements Mean / Donor 2 TNFa Measurements Mean / Donor 3 TNFa Measurements Mean: baseline subtracted; for LPS-induced TNFα secretion: macrophages, 0.15 ng/mL LPS
Method: Unpurified buffy coats (Research Blood Components) were carefully poured into 50 mL centrifuge tubes and diluted with room temperature Dulbecco's Phosphate Buffered Saline (dPBS) with Calcium and Magnesium (Gibco). Diluted buffy coats were further divided into four total 50 mL centrifuge tubes at 20 mL per tube. Lymphocyte Separation Medium (Corning) was carefully pipetted to the bottom of each centrifuge tube. Mixtures were centrifuged at 850× g for 32 minutes at 20° C. with 0 deceleration and acceleration.
The PBMC layer was separated from other components after centrifugation and added to new 50 mL centrifuge tube containing 25 mL dPBS. Total volume was brought up to 50 mL with dPBS and centrifuged at 600×g for 10 minutes at 20° C. with acceleration of 9, deceleration of 5. Supernatant was carefully removed from cell pellets. The cell pellets were resuspended using 10 mL dPBS. Total volume was then brought up to 50 mL using dPBS and centrifuged at 450×g for 5 min at 20° C. with acceleration of 9, deceleration of 9. The supernatant removal and cell pellet resuspension was repeated again.
The supernatant was then carefully removed from cell pellets. Cell pellets were resuspended in 10 mL dPBS without calcium or magnesium and filtered through a 70 uM cell strainer. The total PBMC number was determined using a Cellometer K2 automated cell counter. A total of 5E6 cells were saved for flow cytometric analysis. Remaining cells were centrifuged at 490×g for 5 minutes at 20° C. with acceleration of 9, deceleration of 9.
CD14+ cells were selected using EasySep™ Human CD14 Positive Selection Kit II ([…] Technologies). Cells were resuspended in cold EasySep™ Buffer ([…] Technologies) at 1×10^8 cells/mL. A total of 100 uL/mL EasySep™ Human CD14 Positive Selection Cocktail II was added to the cell suspension, mixed, and incubated at room temperature for 10 minutes. A total of 100 uL/mL RapidSpheres were added to the mixture and incubated at room temperature for 3 minutes after mixing, then RoboSep buffer was added to bring up the total volume to 10 mL. The mixture in a 15 mL tube was placed in magnet and incubated at room temperature for 3 minutes. Supernatant was discarded and 10 mL fresh EasySep™ buffer was added to 15 mL tube. The addition of RoboSep buffer, mixing, and discarding of supernatant was repeated two more times.
Negative and positive fractions were centrifuged at 490×g for 5 minutes at 20° C. with acceleration of 9, deceleration of 9, and resuspended in DMEM (Gibco) and 10% Heat Inactivated Fetal Bovine Serum (Atlanta Bio) and Penicillin/Streptomycin. Cells were counted and centrifuged again at 490× g for 5 minutes at 20° C. with acceleration of 9, deceleration of 9. After centrifugation, cell were resuspended in DMEM (Gibco) and 10% Heat Inactivated Fetal Bovine Serum (Atlanta Bio) and Penicillin/Streptomycin containing 500 U/mL […] and plated at 1-2×10^6 cells/mL on 10 cm tissue culture plates. Cells were kept in 37° C., 5% CO2 in between feedings/harvest.
Cells were fed every 3-4 days by removing media and unattached cells, centrifuging at 490× g for 5 minutes at 20° C. with acceleration of 9, deceleration of 9, and resuspending in fresh DMEM (Gibco) and 10% Heat Inactivated Fetal Bovine Serum (Atlanta Bio) and Penicillin/Streptomycin containing GM-CSF. Resuspended cells were seeded back onto 10 cm tissue culture plates and incubated at 37° C., 5% CO2. Differentiated macrophages were used for subsequent experiments.
Primary human PMBC derived macrophages were seeded on day 0 at 3.0E4 cells per well in 96-well microplates (ThermoFisher) in Dulbecco's Modified Eagle Medium (DMEM) (Gibco) supplemented with penicillin-streptomycin (Hyclone) and 10% heat inactivated fetal bovine serum (HI-FBS) (Atlanta Bio) and incubated overnight at 37° C., 5% CO2. On day 1, cells were washed once with 150 uL per well DPBS (Gibco) and treated with 75 uL of: • a. […]

CCL18 = test: IL-4 induced CCL18 secretion in primary human monocyte-derived macrophages (ELISA); format: cell-based; details: for Donor 1 CCL18 Measurements Mean / Donor 2 CCL18 Measurements Mean: relative to vehicle control; for CCL18 Measurements: Mean (fold change relative to vehicle control): Donor 3, IL-4 induced; for IL-4 induced CCL18 secretion (fold change relative to vehicle control): macrophages
Method: Lymphocytes were purified from unpurified buffy coats (Research Blood Components) using Lymphocyte Separation Medium (Corning). After centrifugation, the PBMC layer was extracted and rinsed several times using Dulbecco's phosphate-buffered saline (DPBS; Gibco). After straining PBMCs through a 70 uM cell strainer, cells were resuspended and counted using a Cellometer K2 automated cell counter.
CD14+ cells were selected using EasySep™ Human CD14 Positive Selection Kit II ([…] Technologies) according to manufacturer-supplied protocols. Following isolation CD14+ cells were seeded into 10 cm tissue culture plates and differentiated into macrophages using M-CSF (Peprotech).
On day 0, primary human PBMC derived macrophages were seeded in Dulbecco's Modified Eagle Medium (DMEM) (Gibco) supplemented with penicillin-streptomycin (Hyclone) and 10% heat inactivated fetal bovine serum (HI-FBS) (Atlanta Bio) into 96-well microplates (ThermoFisher) and incubated overnight at 37° C., 5% CO2. On day 1, cells were washed once with DPBS and then treated with: • a. Amino acid free DMEM (US Biologicals) containing a defined custom amino acid concentration based on the mean physiological concentrations in blood based on values published in the Human Metabolome Database (HMDB), with 6 mM glucose, 1 mM sodium pyruvate, 10 mM HEPES, penicillin-streptomycin; or • b. The same medium described above with one amino acid or amino acid combination at various concentrations
On day 2, cells were treated with the same mediums described above supplemented with recombinant human interleukin-4 (IL-4; Peprotech). Control wells were treated with tofacitinib (Tocris) and IL-4, PBS with IL-4, or phosphate buffered saline (PBS) alone.
On day 3, the supernatant was collected and immediately frozen in −80° C. freezer. Cells were washed once with DPBS and viability was assessed using the WST-8 Cell Proliferation Cytotoxicity Assay (Dojindo) according to manufacturer-supplied protocol. Following the assay, cells were washed twice with PBS and fixed with 4% paraformaldehyde. Protein levels in supernatant samples were analyzed by ELISA for CCL18 using commercially available kits (R&D Systems) according to manufacturer-supplied protocols.

Structure (SMILES): CC(=O)N[C@@H](CS)C(=O)O [NAC, N-acetylcysteine]
- TNFa Measurements Mean (TNFα; Donor 1, Conc. 0 X (baseline)): 0
- TNFa Measurements Mean (TNFα; Donor 1, Conc. 5 X): −326.24
- TNFa Measurements Mean (TNFα; Donor 1, Conc. 10 X): −446.88
- TNFa Measurements Mean (TNFα; Donor 1, Conc. 20 X): −561.33
- TNFa Measurements Mean (TNFα; Donor 1, Conc. 40 X): −644.49
- Donor 2 TNFa Measurements Mean (TNFα; Donor 2, Conc. 0 X (baseline)): 9.47E−15
- Donor 2 TNFa Measurements Mean (TNFα; Donor 2, Conc. 5 X): −54.1596
- Donor 2 TNFa Measurements Mean (TNFα; Donor 2, Conc. 10 X): −70.8382
- Donor 2 TNFa Measurements Mean (TNFα; Donor 2, Conc. 20 X): −88.6528
- Donor 2 TNFa Measurements Mean (TNFα; Donor 2, Conc. 40 X): −103.984
- Donor 3 TNFa Measurements Mean (TNFα; Donor 3, Conc. 0 X (baseline)): 4.74E−15
- Donor 3 TNFa Measurements Mean (TNFα; Donor 3, Conc. 5 X): −33.6246
- Donor 3 TNFa Measurements Mean (TNFα; Donor 3, Conc. 10 X): −41.7266
- Donor 3 TNFa Measurements Mean (TNFα; Donor 3, Conc. 20 X): −48.4373
- Donor 3 TNFa Measurements Mean (TNFα; Donor 3, Conc. 40 X): −55.3093
- LPS-induced TNFα secretion (TNFα; Donor 1): significantly reduced
- LPS-induced TNFα secretion (TNFα; Donor 2): significantly reduced
- LPS-induced TNFα secretion (TNFα; Donor 3): significantly reduced
- Donor 1 CCL18 Measurements Mean (CCL18; Donor 1, Conc. 4 X): 1.831 fold change
- Donor 1 CCL18 Measurements Mean (CCL18; Donor 1, Conc. 10 X): 1.979 fold change
- Donor 1 CCL18 Measurements Mean (CCL18; Donor 1, Conc. 20 X): 2.206 fold change
- Donor 1 CCL18 Measurements Mean (CCL18; Donor 1, Conc. 40 X): 2.464 fold change
- Donor 2 CCL18 Measurements Mean (CCL18; Donor 2, Conc. 5 X): 1.326 fold change
- Donor 2 CCL18 Measurements Mean (CCL18; Donor 2, Conc. 10 X): 1.293 fold change
- Donor 2 CCL18 Measurements Mean (CCL18; Donor 2, Conc. 20 X): 1.169 fold change
- Donor 2 CCL18 Measurements Mean (CCL18; Donor 2, Conc. 40 X): 1.517 fold change
- CCL18 Measurements: Mean (fold change relative to vehicle control) (CCL18; Conc. 5 X): 1.324 fold change
- CCL18 Measurements: Mean (fold change relative to vehicle control) (CCL18; Conc. 10 X): 1.67 fold change
- CCL18 Measurements: Mean (fold change relative to vehicle control) (CCL18; Conc. 20 X): 1.812 fold change
- CCL18 Measurements: Mean (fold change relative to vehicle control) (CCL18; Conc. 40 X): 1.887 fold change
- IL-4 induced CCL18 secretion (fold change relative to vehicle control) (CCL18; Donor 1): significantly increased
- IL-4 induced CCL18 secretion (fold change relative to vehicle control) (CCL18; Donor 2): significantly increased

Structure (SMILES): CC(C)[C@H](N)C(=O)O [Valine, L-Valine]
- TNFa Measurements Mean (TNFα; Donor 1, Conc. 234 μM (baseline)): 0
- TNFa Measurements Mean (TNFα; Donor 1, Conc. 4684 μM): −40.37
- TNFa Measurements Mean (TNFα; Donor 1, Conc. 11710 μM): −41.77
- TNFa Measurements Mean (TNFα; Donor 1, Conc. 23420 μM): −14.98
- Donor 2 TNFa Measurements Mean (TNFα; Donor 2, Conc. 234 μM (baseline)): −4.7E−15
- Donor 2 TNFa Measurements Mean (TNFα; Donor 2, Conc. 4684 μM): −0.00221
- Donor 2 TNFa Measurements Mean (TNFα; Donor 2, Conc. 11710 μM): −0.835
- Donor 2 TNFa Measurements Mean (TNFα; Donor 2, Conc. 23420 μM): −1.251
- Donor 3 TNFa Measurements Mean (TNFα; Donor 3, Conc. 234 μM (baseline)): −2.4E−15
- Donor 3 TNFa Measurements Mean (TNFα; Donor 3, Conc. 4684 μM): 0.126
- Donor 3 TNFa Measurements Mean (TNFα; Donor 3, Conc. 11710 μM): −2.599
- Donor 3 TNFa Measurements Mean (TNFα; Donor 3, Conc. 23420 μM): 3.688
- Donor 1 CCL18 Measurements Mean (CCL18; Donor 1, Conc. 234 μM): 1.109 fold change
- Donor 1 CCL18 Measurements Mean (CCL18; Donor 1, Conc. 4684 μM): 1.264 fold change
- Donor 1 CCL18 Measurements Mean (CCL18; Donor 1, Conc. 11710 μM): 1.442 fold change
- Donor 1 CCL18 Measurements Mean (CCL18; Donor 1, Conc. 23420 μM): 0.9491 fold change
- Donor 2 CCL18 Measurements Mean (CCL18; Donor 2, Conc. 234 μM): 1.255 fold change
- Donor 2 CCL18 Measurements Mean (CCL18; Donor 2, Conc. 4684 μM): 1.545 fold change
- Donor 2 CCL18 Measurements Mean (CCL18; Donor 2, Conc. 11710 μM): 1.998 fold change
- Donor 2 CCL18 Measurements Mean (CCL18; Donor 2, Conc. 23420 μM): 2.269 fold change
- CCL18 Measurements: Mean (fold change relative to vehicle control) (CCL18; Conc. 234 μM): 0.7896 fold change
- CCL18 Measurements: Mean (fold change relative to vehicle control) (CCL18; Conc. 4684 μM): 0.9781 fold change
- CCL18 Measurements: Mean (fold change relative to vehicle control) (CCL18; Conc. 11710 μM): 0.9976 fold change
- CCL18 Measurements: Mean (fold change relative to vehicle control) (CCL18; Conc. 23420 μM): 1.082 fold change
- IL-4 induced CCL18 secretion (fold change relative to vehicle control) (CCL18; Donor 2): significantly increased
